Measurements published in the supplement of paper PMC11424490.

Legend:
SW837 [1] = experiment: combination cScore with sotorasib (Bliss gap around IC50) (%PoC); higher = stronger additive effect
Method: (§1)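 Combination screen of 179 inhibitors with the KRAS G12C inhibitor sotorasib (AMG510) in dose matrices, CellTiter-Glo readout in NCI-H2122 (72 h), SW837 (144 h) and NCI-H358 cells. The cScore is the mean Bliss-independence gap (expected minus observed viability, in %PoC) over a 3x3 field around the IC50s of both drugs. Positive means additive, and >~10 is stated as clear additive.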

NCI-H2122 [2] = experiment: as above
Method: as §1

SW837 [3] = experiment: combination cScore with adagrasib (Bliss gap around IC50) (%PoC); higher = stronger additive effect
Method in brief: (§2)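 NCI-H2122, NCI-H358 and SW837 cells were plated in 384-well plates at 500 or 800 cells per well, treated with concentration matrices after 24 h, and grown for 72 h (SW837 for 144 h). Luminescence from CellTiter-Glo was expressed as percent of control relative to vehicle wells and fitted with four-parameter curves. The score is the mean Bliss-independence gap, expected minus measured viability, across a field around both monotherapy IC50 values, or across the top concentrations where no IC50 was reached.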

NCI-H2122 [4] = experiment: as above
Method in brief: as §2

Row | Compound | combination cScore with sotorasib (SW837 [1]) | combination cScore with sotorasib (NCI-H2122 [2]) | combination cScore with adagrasib (SW837 [3]) | combination cScore with adagrasib (NCI-H2122 [4])
1 | CC(C)(C(=O)NCC(F)(F)C(F)(F)F)C(=O)N[C@@H]1C(=O)Nc2ccccc2-c2ccccc21 + C=CC(=O)N1CCN(c2nc(=O)n(-c3c(C)ccnc3C(C)C)c3nc(-c4c(O)cccc4F)c(F)cc23)[C@@H](C)C1 [sotorasib] | 21.5 | 2.56 |  | 
2 | CCc1cnn2c(NCc3ccc[n+]([O-])c3)cc(N3CCCC[C@H]3CCO)nc12 + C=CC(=O)N1CCN(c2nc(=O)n(-c3c(C)ccnc3C(C)C)c3nc(-c4c(O)cccc4F)c(F)cc23)[C@@H](C)C1 [sotorasib] | 2.65 | 7.04 |  | 
3 | CN(C)CCCC(=O)Nc1n[nH]c2nnc(-c3ccccc3)cc12 + C=CC(=O)N1CCN(c2nc(=O)n(-c3c(C)ccnc3C(C)C)c3nc(-c4c(O)cccc4F)c(F)cc23)[C@@H](C)C1 [sotorasib] | -4.53 | -11.8 |  | 
4 | COc1ccc(Cn2ccc3ccc(C(=O)NO)cc32)cc1 + C=CC(=O)N1CCN(c2nc(=O)n(-c3c(C)ccnc3C(C)C)c3nc(-c4c(O)cccc4F)c(F)cc23)[C@@H](C)C1 [sotorasib] | 10.9 | 0.89 |  | 
5 | COc1ccc2nc3ccc(OC)cc3c(SCCCN)c2c1 + C=CC(=O)N1CCN(c2nc(=O)n(-c3c(C)ccnc3C(C)C)c3nc(-c4c(O)cccc4F)c(F)cc23)[C@@H](C)C1 [sotorasib] | -2.67 | 11.5 |  | 
6 | C[C@@H](Oc1cc(-c2cnn(C3CCNCC3)c2)cnc1N)c1c(Cl)ccc(F)c1Cl + C=CC(=O)N1CCN(c2nc(=O)n(-c3c(C)ccnc3C(C)C)c3nc(-c4c(O)cccc4F)c(F)cc23)[C@@H](C)C1 [sotorasib] | 13.5 | 2.31 |  | 
7 | Cc1[nH]c(/C=C2\C(=O)Nc3ccc(S(=O)(=O)Cc4c(Cl)cccc4Cl)cc32)c(C)c1C(=O)N1CCC[C@@H]1CN1CCCC1 + C=CC(=O)N1CCN(c2nc(=O)n(-c3c(C)ccnc3C(C)C)c3nc(-c4c(O)cccc4F)c(F)cc23)[C@@H](C)C1 [sotorasib] | -0.04 | 0.62 |  | 
8 | NC(=O)c1ccc(-c2nc(-c3ccccn3)c(-c3ccc4c(c3)OCO4)[nH]2)cc1 + C=CC(=O)N1CCN(c2nc(=O)n(-c3c(C)ccnc3C(C)C)c3nc(-c4c(O)cccc4F)c(F)cc23)[C@@H](C)C1 [sotorasib] | 4.91 | 3.33 |  | 
9 | NC(=O)c1cnc(N[C@@H]2CCCC[C@@H]2N)nc1Nc1cccc(-n2nccn2)c1 + C=CC(=O)N1CCN(c2nc(=O)n(-c3c(C)ccnc3C(C)C)c3nc(-c4c(O)cccc4F)c(F)cc23)[C@@H](C)C1 [sotorasib] | -0.31 | 7.42 |  | 
10 | O=[N+]([O-])c1ccc(NCCNc2ncc(-c3ncc[nH]3)c(-c3ccc(Cl)cc3Cl)n2)nc1 + C=CC(=O)N1CCN(c2nc(=O)n(-c3c(C)ccnc3C(C)C)c3nc(-c4c(O)cccc4F)c(F)cc23)[C@@H](C)C1 [sotorasib] | 3.71 | -9.14 |  | 
11 | On1ncc2cc(CCc3nn[nH]n3)ccc21 + C=CC(=O)N1CCN(c2nc(=O)n(-c3c(C)ccnc3C(C)C)c3nc(-c4c(O)cccc4F)c(F)cc23)[C@@H](C)C1 [sotorasib] | -12.1 | -2.12 |  | 
12 | c1ccc(-c2nn3c(c2-c2ccnc4cc(OCCN5CCOCC5)ccc24)CCC3)nc1 + C=CC(=O)N1CCN(c2nc(=O)n(-c3c(C)ccnc3C(C)C)c3nc(-c4c(O)cccc4F)c(F)cc23)[C@@H](C)C1 [sotorasib] | 8.58 | 8.94 |  | 
13 | CC1(C)CCC(CN2CCN(c3ccc(C(=O)NS(=O)(=O)c4ccc(NCC5CCOCC5)c([N+](=O)[O-])c4)c(Oc4cnc5[nH]ccc5c4)c3)CC2)=C(c2ccc(Cl)cc2)C1 [ABT-199] + C=CC(=O)N1CCN(c2nc(=O)n(-c3c(C)ccnc3C(C)C)c3nc(-c4c(O)cccc4F)c(F)cc23)[C@@H](C)C1 [sotorasib] | -2.18 | 11.2 |  | 
14 | CO[C@H]1/C=C/C[C@H](C)[C@@H](C)S(=O)(=O)NC(=O)c2ccc3c(c2)N(C[C@@H]2CC[C@H]21)C[C@@]1(CCCc2cc(Cl)ccc21)CO3 [AMG176] + C=CC(=O)N1CCN(c2nc(=O)n(-c3c(C)ccnc3C(C)C)c3nc(-c4c(O)cccc4F)c(F)cc23)[C@@H](C)C1 [sotorasib] | 2.13 | 17.3 |  | 
15 | COc1cc(OC2CCN(C)CC2)ccc1Nc1ncc2c(n1)n(C1CCCC1)c(=O)n2C [AZ3146] + C=CC(=O)N1CCN(c2nc(=O)n(-c3c(C)ccnc3C(C)C)c3nc(-c4c(O)cccc4F)c(F)cc23)[C@@H](C)C1 [sotorasib] | 19.4 | 4.43 |  | 
16 | Cc1cc(Nc2nc(N[C@@H](C)c3ncc(F)cn3)ncc2Cl)[nH]n1 [AZD-1480] + C=CC(=O)N1CCN(c2nc(=O)n(-c3c(C)ccnc3C(C)C)c3nc(-c4c(O)cccc4F)c(F)cc23)[C@@H](C)C1 [sotorasib] | -5.71 | 5.41 |  | 
17 | NC(=O)Nc1cc(-c2cccc(F)c2)sc1C(=O)N[C@H]1CCCNC1 [AZD-7762] + C=CC(=O)N1CCN(c2nc(=O)n(-c3c(C)ccnc3C(C)C)c3nc(-c4c(O)cccc4F)c(F)cc23)[C@@H](C)C1 [sotorasib] | 6.36 | 2.45 |  | 
18 | COc1cc2cc(c1Cl)N(C)C(=O)C[C@H](OC(=O)C(C)C)[C@]1(C)O[C@@H]1[C@H](C)[C@@H]1C[C@@](O)(NC(=O)O1)[C@H](OC)/C=C/C=C(\C)C2 [Ansamitocin P3] + C=CC(=O)N1CCN(c2nc(=O)n(-c3c(C)ccnc3C(C)C)c3nc(-c4c(O)cccc4F)c(F)cc23)[C@@H](C)C1 [sotorasib] | -0.32 | 5.88 |  | 
19 | Cc1ncc([N+](=O)[O-])n1CCOC(=O)NC(Nc1ncccn1)C(Cl)(Cl)Cl (stereo unspecified) [Apcin] + C=CC(=O)N1CCN(c2nc(=O)n(-c3c(C)ccnc3C(C)C)c3nc(-c4c(O)cccc4F)c(F)cc23)[C@@H](C)C1 [sotorasib] | 4.14 | -0.45 |  | 
20 | Nc1ncn([C@@H]2O[C@H](CO)[C@@H](O)[C@H]2O)c(=O)n1 [Azacitidine] + C=CC(=O)N1CCN(c2nc(=O)n(-c3c(C)ccnc3C(C)C)c3nc(-c4c(O)cccc4F)c(F)cc23)[C@@H](C)C1 [sotorasib] | 18.6 | 3.93 |  | 
21 | CCN1CCN(c2ccc(Nc3cc(N(C)C(=O)Nc4c(Cl)c(OC)cc(OC)c4Cl)ncn3)cc2)CC1 [BGJ398] + C=CC(=O)N1CCN(c2nc(=O)n(-c3c(C)ccnc3C(C)C)c3nc(-c4c(O)cccc4F)c(F)cc23)[C@@H](C)C1 [sotorasib] | 12.1 | 2.52 |  | 
22 | O=C(Cc1ccccc1)Nc1nnc(CCSCCc2nnc(NC(=O)Cc3ccccc3)s2)s1 [BPTES] + C=CC(=O)N1CCN(c2nc(=O)n(-c3c(C)ccnc3C(C)C)c3nc(-c4c(O)cccc4F)c(F)cc23)[C@@H](C)C1 [sotorasib] | -3.09 | 4.36 |  | 
23 | COc1cc2nccc(Oc3ccc(NC(=O)C4(C(=O)Nc5ccc(F)cc5)CC4)cc3)c2cc1OC [XL-184] + C=C(F)C(=O)N1CCN(c2nc(OC[C@@H]3CCCN3C)nc3c2CCN(c2cccc4cccc(Cl)c24)C3)C[C@@H]1CC#N [adagrasib] |  |  | 9.25 | 4.53
